The values that follow come from US7605179B2, “Napthoquinone derivatives as inhibitors of tau aggregation for the treatment of alzheimer's and related neurodegenerative disorders” (Wista Laboratories Ltd., priority 2001, dated 2009).

One data set has as its system cultured CNS neurones. The following applies: cited from earlier work.
Another data set concerns fibroblast cells (3T6). Nature of the data set: Toxicity in the T40/12 kD cell assay (lactate dehydrogenase kit). Type of data set: cell-based. The following applies: for LD50: cellular LD50, cell numbers after 24 hrs exposure; for Rxindx: therapeutic index, RxIndx=LD50/B50. The procedure: Toxicity of the compounds described above was assessed in the T40/12 kD cell assay used to assess activity. Toxicity was measured by cell numbers after 24 hrs exposure to the compound using a lactate dehydrogenase assay kit TOX-7(Sigma Biosciences) according to the manufacturer's instructions after lysis of remaining cells. Alternatively a kit from Promega UK (CytoTox 96) was used, again according to the manufacturer's instructions.

In data set [1] the target is tau-tau binding (Homo sapiens, UniProt P10636). Nature of the data set: Cell-based assay I ('T40/12 kD'), production of the 12 kD fragment. The following applies: for activity as inhibitor of tau-tau aggregation: T40/12 kD cell assay; for Ki: apparent KI calculated from T40/12 kD cell data, assumes intracellular tau 500 nM, tau-tau Kd 22 nM; for IC50: concentration at which production of the 12 kD band from full-length tau is reduced to 50%, read-out: B50. The procedure: Production of the 12 kD fragment can be blocked in a dose-dependent manner by tau-aggregation inhibitors. Indeed the quantitation of inhibitory activity of compounds with respect to proteolytic generation of the 12 kD fragment within cells can be described entirely in terms of the same parameters which describe inhibition of tau-tau binding in vitro. That is, extent of proteolytic generation of the 12 kD fragment within cells is determined entirely by the extent to tau-tau binding through the repeat domain. The availability of the relevant proteases within the cell is non-limiting.
The process is described in more detail in prior filed unpublished application GB 0101049.5.
The observed cell data for production of the 12 kD band can be fitted closely (i.e. observed vs. predicted correlation coefficient >0.9), to a standard function describing inhibition of tau-tau binding in vitro. To obtain this fit, two assumptions need to be made, which are consistent with results from other cell-based and in vitro studies: • 1) the intracellular concentration of tau is approximately 500 nM; • 2) the tau-tau binding affinity is 22 nM.
When these assumptions are made, the function: Activity=[tau]([tau]+Kd*(1+[inhibitor]/KI)) can be solved by standard numerical methods to derive a value for apparent KI. Comparison with values observed for tau-tau binding in vitro at a tau concentration of 500 nM, where the Kd value for tau-tau binding is known to be 22 nM confirm that the sole determinant of production of the proteolytically stable core tau unit of the PHF within the cell is simply the extent of tau-tau binding.
A further parameter, B50, has been established in respect of compounds exemplified herein. The B50 value is the determined concentration of test compound used in the cell assay at which relative production of the 12 kD band from full-length tau was reduced to 50% of that observed in the absence of the compound. This provides an indication of the tissue concentration which would be required to achieve the corresponding activity in vivo. In general there is an approximately linear relationship between apparent KI value and B50 value, which can be used to derive the KI value: B50(μM)=0.0217×KI(nM) Cell-based Assay II(‘ssK40/25 kD’)

Another data set concerns the target tau-tubulin binding (Homo sapiens, UniProt P10636). Nature of the data set: In vitro tau-tubulin binding. The following applies: at concentrations up to 500 μM (2500:1 molar ratio with respect to tau).
Data set [2] has as its system tau-tau binding. The following applies: WO 96/30766 FIGS. 23 and 24; 1 represents binding equivalent to that in the absence of compound; cited from earlier work.
Data set [3] concerns the target tau-tau binding. Nature of the data set: In vitro tau-tau binding assay (WO 96/30766). As to the method: FIG. 5 is a schematic representation of the in vitro aggregation assay of WO 96/30766 in which binding of two truncated units is measured. The species terminating at […] (“a”) is first coated on the ELISA plate (in sodium carbonate buffer: 50 mM, pH 9.6). Next, a second truncated tau species terminating at […] (“e”) is incubated in various buffer conditions. […] This is described in detail in WO 96/30766. Briefly, a fragment of tau corresponding to the core repeat domain, which has been adsorbed to a solid phase substrate, is able to capture soluble full-length tau and bind tau with high affinity. This association confers stability against proteolytic digestion of the aggregated tau molecules. The process is self-propagating, and can be blocked selectively by prototype pharmaceutical agents ([…]., et al. (1996), loc. cit). The assay is shown schematically in FIG. 5.

The target in the next data set is T1, tau-tau aggregation (Homo sapiens, UniProt P10636).
T1 construct: membrane-targeted tau (sstau190-441, “ssK40”); expressed in transfected cells
Nature of the data set: Cell-based assay II ('ssK40/25 kD'), proteolytic processing of tau. The following applies: concentrations of 1-2 μM. From the text: The process is described in more detail in prior filed unpublished application GB 0100119.7. […] These cleavage sites correspond to the known boundaries of the PHF-core domain, indicate that their generation within the cell depends on PHF-like tau aggregation through an antiparallel phase-shifted alignment of the repeat domain.
This is shown schematically in FIG. 7. When expression of full-length tau (T40) is activated under control of an inducible promoter in cells which constitutively express the membrane-targeted ssK40 fragment, T40 is processed proteolytically to give rise to a K40 fragment (N-terminal truncation at ˜αα 185), a K30 fragment (C-terminal truncation ˜αα 390) and a K25 fragment (N-terminal truncation at ˜αα 295).

Another data set has as its system tau protein. The following applies: 200 μM; cited from earlier work.

Sequence of tau-tau binding (Homo sapiens, UniProt P10636) (P10636 1-441 isoform P10636-8): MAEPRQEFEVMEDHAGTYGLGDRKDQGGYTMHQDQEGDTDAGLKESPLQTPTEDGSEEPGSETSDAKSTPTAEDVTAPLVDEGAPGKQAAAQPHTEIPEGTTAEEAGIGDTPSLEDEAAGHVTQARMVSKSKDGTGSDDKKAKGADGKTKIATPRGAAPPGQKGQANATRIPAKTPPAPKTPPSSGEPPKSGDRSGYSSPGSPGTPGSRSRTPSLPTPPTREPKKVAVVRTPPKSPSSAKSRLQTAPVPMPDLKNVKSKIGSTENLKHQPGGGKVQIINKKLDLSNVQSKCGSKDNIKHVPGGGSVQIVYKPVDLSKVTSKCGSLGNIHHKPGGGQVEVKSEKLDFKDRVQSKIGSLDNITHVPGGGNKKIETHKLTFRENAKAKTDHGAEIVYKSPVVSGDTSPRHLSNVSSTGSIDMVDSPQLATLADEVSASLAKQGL
T1 sequence (P10636 507-758): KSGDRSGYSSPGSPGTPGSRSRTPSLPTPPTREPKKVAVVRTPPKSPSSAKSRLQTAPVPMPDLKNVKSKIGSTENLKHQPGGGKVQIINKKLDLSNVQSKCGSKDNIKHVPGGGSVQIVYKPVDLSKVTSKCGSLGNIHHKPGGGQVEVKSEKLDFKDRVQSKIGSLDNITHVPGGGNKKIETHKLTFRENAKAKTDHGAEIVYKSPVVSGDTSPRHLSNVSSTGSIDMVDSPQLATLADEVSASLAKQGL
Sequence of tau-tubulin binding (P10636 whole entry): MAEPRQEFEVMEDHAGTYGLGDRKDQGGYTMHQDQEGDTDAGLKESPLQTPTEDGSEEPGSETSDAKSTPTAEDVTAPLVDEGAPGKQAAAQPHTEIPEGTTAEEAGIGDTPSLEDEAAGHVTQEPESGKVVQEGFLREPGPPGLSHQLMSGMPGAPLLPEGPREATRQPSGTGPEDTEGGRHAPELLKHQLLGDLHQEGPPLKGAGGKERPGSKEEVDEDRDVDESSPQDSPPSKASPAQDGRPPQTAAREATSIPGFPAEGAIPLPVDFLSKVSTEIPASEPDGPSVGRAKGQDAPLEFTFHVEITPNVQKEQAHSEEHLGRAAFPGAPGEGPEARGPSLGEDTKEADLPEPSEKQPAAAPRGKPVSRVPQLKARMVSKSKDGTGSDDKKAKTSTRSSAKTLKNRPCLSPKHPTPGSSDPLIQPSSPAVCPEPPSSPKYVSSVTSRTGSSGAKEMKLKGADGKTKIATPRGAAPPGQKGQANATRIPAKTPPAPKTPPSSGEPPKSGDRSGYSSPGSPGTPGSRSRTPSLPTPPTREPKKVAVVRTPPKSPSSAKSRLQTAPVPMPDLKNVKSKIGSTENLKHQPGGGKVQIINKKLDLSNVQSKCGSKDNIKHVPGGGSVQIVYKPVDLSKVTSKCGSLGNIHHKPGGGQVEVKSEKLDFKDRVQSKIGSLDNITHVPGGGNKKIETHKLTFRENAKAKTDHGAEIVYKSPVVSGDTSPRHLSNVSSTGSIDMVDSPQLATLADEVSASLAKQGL

With `CC1=C(C/C=C(\C)CCC[C@H](C)CCC[C@H](C)CCCC(C)C)C(=O)c2ccccc2C1=O` [Compound K1, 2-methyl-3-phytyl-1,4-naphthoquinone], the survival promoting effects entry in the data set with cultured CNS neurones (in the range 10 nM—1 μM) is listed as “prominent survival promoting effects”.

As to `Cc1cc(OS(=O)(=O)O)c2ccccc2c1OS(=O)(=O)O` [DH13], in the data set with fibroblast cells (3T6), the “LD50” value came to 30.90 µM and the Rxindx was found to be 5.41. Moreover, at tau-tau binding [1], the “activity as inhibitor of tau-tau aggregation” value (“activity as inhibitor” below) is “intermediate in activity”, the Ki is 0.263 µM and the IC50 was found to be 5.71 µM.

Regarding `CC(=O)Oc1cc(C)c(OC(C)=O)c2ccccc12` [DH9], in the data set with fibroblast cells (3T6), the “LD50” value came out at 13.09 µM and the Rxindx is on record as 4.75. Moreover, on tau-tau binding [1], the “activity as inhibitor” value is listed as “highly active”, the Ki was 0.127 µM and the IC50 stood at 2.76 µM.

With `CC(=O)Oc1c(C)c(C)c(OC(C)=O)c2ccccc12` [DH11], in the data set with fibroblast cells (3T6), the “LD50” value was 12.13 µM and the Rxindx worked out at 0.83. In addition, at tau-tau binding [1], the “activity as inhibitor” value was “reduced activity”, the Ki was 0.674 µM and the IC50 came out at 14.6 µM.

For the compound menaquinone [Compound K2], the “inhibition of tau-tubulin binding in vitro” value on tau-tubulin binding is “does not inhibit”. Also, the “ranking value of inhibitory properties” value in the data set on tau-tau binding [2] is 0.674. The Ki at tau-tau binding [3] (for values less than 100 μM, read-out: apparent KI value in vitro) amounted to 0.942 µM.

As to `CC1=C(C)C(=O)c2ccccc2C1=O` [DH10, 2,3-dimethyl-1,4-naphthoquinone], in the data set on fibroblast cells (3T6), the “LD50” value came out at 66.71 µM and the Rxindx was determined as 13.91. In addition, on tau-tau binding [1], the Ki is 0.221 µM and the IC50 was 4.8 µM.

With `CC(C)=CCC1=C(O)C(=O)c2ccccc2C1=O` [DH1], in the data set on fibroblast cells (3T6), the “LD50” value was 100.97 µM and the Rxindx came to 9.07. At tau-tau binding [1], the “activity as inhibitor” value is reported as “weak activity”, the Ki is 0.513 µM and the IC50 stood at 11.1 µM.

`CC1=CC(=O)c2ccccc2C1=O` [Compound K3, 2-methyl-1,4-naphthoquinone]: in the data set on cultured CNS neurones (only at 1 μM), the “survival promoting activity relative to vitamins K1 and K2” value is given as approximately 10%. For the same compound, in the data set on fibroblast cells (3T6), the “LD50” value amounted to 44.92 µM and the Rxindx turned out to be 16.17. Moreover, on tau-tau aggregation, the “conversion K40→K25 relative to that seen without K3” value is on record as “about ½” and the “conversion of T40→K25 relative to that seen without K3” value is reported as “about ¼”. Further, on tau-tau aggregation (inferred), the “conversion of T40→K40 relative to that seen without K3” value was “about ½”. The “ranking value of inhibitory properties” value in the data set on tau-tau binding [2] is given as 1.042. Further, the “effect on tau protein phosphorylation” value in the data set on tau protein is “prominent dephosphorylation of tau protein”. The “activity in the in vitro assay” value in the data set on tau-tau binding [3] is “did not show activity”. Besides, on tau-tau binding [1], the Ki is 0.128 µM and the IC50 is 2.78 µM.

For the compound `O=C(O)c1cc(O)c2ccccc2c1O` [DH5], in the data set on fibroblast cells (3T6), the “LD50” value was 34.29 µM and the Rxindx is 13.39. Further, on tau-tau binding [1], the “activity as inhibitor” value is “had activity”, the Ki was 0.118 µM and the IC50 was found to be 2.56 µM.
